Patent US20250302832A1, “PYRAZINE DERIVATIVES AND USES THEREOF” (FOGHORN THERAPEUTICS INC., priority 2022, published 2025)

Key:
HiBit-BRM fusion protein = biological target: T1, HiBit-BRM fusion protein (Homo sapiens, UniProt P51531); assay: HiBiT-BRM cell-based degradation assay (Nano-Glo HiBiT lytic detection, 24 h); conditions: HeLa cell line expressing HiBiT-BRM; for DC50: read-out: BRM HiBit Degradation IC50
T1 construct: expressed in transfected cells
How it was run: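 Stable HeLa HiBiT-BRM cells treated 24 h with compounds (10-point 3-fold dilutions, 30 μM final top dose, duplicate). HiBiT levels read by Nano-Glo lytic luminescence; % degradation normalised to DMSO (high control) and 2 μM reference BRM/BRG1 degrader (low control).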

[1] = biological target: T2, HiBit-BRG1 fusion protein (Homo sapiens, UniProt P51532); assay: HiBiT-BRG1 cell-based degradation assay (Nano-Glo HiBiT lytic detection, 24 h); conditions: HeLa cell line expressing HiBit-BRG1 and LgBit; for Dmax: read-out: BRG1 HiBit Degradation Maximum (%); for DC50: read-out: BRMG1 HiBit Degradation IC50
T2 construct: expressed in transfected cells
T2 sequence (P51532 whole entry, the tested form may be a part): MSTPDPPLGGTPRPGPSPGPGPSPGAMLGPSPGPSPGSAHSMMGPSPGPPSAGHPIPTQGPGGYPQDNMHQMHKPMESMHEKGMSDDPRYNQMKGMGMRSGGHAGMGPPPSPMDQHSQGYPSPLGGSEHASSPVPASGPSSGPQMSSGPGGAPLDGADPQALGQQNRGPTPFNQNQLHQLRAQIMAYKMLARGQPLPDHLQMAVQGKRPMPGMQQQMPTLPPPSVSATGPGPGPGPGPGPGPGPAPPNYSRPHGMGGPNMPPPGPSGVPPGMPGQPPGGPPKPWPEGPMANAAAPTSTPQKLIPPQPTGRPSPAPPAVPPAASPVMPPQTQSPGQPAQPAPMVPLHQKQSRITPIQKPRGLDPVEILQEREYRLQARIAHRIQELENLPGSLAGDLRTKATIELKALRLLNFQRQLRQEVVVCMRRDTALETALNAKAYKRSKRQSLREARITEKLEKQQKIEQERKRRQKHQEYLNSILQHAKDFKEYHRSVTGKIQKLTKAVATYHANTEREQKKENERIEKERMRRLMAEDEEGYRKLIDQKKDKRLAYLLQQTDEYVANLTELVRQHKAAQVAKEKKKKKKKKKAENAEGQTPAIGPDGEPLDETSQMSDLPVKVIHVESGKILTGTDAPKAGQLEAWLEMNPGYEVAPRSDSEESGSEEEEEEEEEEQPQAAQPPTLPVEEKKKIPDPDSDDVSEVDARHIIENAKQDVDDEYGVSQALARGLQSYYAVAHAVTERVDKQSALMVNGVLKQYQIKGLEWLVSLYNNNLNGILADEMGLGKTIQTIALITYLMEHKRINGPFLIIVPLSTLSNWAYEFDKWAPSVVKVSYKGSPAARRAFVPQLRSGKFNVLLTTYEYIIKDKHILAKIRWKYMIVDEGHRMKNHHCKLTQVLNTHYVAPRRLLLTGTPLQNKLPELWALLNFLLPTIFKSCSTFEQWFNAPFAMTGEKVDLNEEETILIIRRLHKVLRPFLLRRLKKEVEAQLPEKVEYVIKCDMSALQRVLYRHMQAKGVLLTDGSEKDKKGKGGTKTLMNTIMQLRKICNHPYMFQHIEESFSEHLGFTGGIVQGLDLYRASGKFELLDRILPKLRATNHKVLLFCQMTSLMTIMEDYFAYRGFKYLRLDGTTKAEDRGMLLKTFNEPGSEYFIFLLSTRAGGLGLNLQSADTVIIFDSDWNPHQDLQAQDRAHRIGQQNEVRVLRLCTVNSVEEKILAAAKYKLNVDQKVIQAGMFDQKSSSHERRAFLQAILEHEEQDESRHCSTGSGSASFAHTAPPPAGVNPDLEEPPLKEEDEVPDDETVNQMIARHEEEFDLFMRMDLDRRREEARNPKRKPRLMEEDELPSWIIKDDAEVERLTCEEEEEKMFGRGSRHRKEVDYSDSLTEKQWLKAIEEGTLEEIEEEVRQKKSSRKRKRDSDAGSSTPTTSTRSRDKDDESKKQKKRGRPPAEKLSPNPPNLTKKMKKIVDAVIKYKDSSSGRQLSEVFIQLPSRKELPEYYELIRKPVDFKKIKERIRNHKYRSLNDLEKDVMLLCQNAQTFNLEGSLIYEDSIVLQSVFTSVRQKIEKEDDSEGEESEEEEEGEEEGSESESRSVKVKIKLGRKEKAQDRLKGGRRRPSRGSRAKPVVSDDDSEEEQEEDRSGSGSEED
How it was run: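 HeLa cells stably expressing HiBiT-BRG1 and LgBiT, 5000 per well, compound-treated 24 h, equilibrated 15 min at room temperature, then lysed with LgBiT-containing Nano-Glo HiBiT lytic reagent and luminescence read. % degradation normalised between DMSO (high control) and 2 μM reference BRM/BRG1 degrader (low control).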

T1 sequence (P51531 whole entry, the tested form may be a part): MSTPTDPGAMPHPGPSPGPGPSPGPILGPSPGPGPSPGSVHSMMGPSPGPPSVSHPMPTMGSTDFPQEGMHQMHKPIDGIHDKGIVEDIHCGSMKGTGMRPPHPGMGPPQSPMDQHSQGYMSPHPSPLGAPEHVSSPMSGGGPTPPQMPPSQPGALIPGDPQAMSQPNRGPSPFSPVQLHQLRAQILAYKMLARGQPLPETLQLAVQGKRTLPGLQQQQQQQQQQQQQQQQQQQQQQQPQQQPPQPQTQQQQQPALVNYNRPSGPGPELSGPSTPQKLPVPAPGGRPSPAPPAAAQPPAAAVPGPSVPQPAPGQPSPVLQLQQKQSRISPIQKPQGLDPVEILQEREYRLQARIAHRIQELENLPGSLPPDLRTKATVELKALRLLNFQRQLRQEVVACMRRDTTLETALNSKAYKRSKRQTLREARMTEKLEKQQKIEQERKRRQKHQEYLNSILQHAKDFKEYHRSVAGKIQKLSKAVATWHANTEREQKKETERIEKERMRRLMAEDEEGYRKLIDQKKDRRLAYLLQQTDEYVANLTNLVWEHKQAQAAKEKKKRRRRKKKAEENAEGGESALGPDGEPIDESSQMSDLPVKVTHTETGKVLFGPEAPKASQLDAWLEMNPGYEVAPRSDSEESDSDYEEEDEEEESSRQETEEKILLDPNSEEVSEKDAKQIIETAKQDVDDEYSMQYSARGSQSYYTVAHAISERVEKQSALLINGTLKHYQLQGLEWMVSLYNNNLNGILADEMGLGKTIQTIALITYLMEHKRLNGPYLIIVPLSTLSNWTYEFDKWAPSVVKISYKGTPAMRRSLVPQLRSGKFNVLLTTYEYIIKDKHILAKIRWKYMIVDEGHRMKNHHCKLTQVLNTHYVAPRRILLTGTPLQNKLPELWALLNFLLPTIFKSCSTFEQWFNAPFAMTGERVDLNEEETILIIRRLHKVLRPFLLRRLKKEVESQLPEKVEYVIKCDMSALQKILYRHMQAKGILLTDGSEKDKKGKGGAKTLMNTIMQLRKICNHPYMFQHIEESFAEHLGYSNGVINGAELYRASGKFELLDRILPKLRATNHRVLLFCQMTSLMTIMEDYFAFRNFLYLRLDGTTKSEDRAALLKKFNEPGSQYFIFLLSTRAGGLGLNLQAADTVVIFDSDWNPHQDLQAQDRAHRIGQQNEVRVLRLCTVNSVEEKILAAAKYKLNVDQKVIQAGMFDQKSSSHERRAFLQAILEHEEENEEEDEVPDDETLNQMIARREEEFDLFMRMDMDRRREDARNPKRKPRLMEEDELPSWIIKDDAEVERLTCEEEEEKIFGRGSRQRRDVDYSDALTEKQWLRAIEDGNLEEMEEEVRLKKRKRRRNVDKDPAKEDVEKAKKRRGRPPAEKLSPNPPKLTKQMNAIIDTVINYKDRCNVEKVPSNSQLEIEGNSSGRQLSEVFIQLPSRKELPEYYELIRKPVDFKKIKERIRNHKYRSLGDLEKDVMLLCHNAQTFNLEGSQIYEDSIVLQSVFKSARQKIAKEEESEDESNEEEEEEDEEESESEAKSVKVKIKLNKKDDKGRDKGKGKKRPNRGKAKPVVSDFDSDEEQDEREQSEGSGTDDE

SMILES | BRM HiBit Degradation Maximum (%) (HiBit-BRM fusion protein) | DC50 (HiBit-BRM fusion protein) [nM] | Dmax [1] [%] | DC50 [1] [nM]
Cc1ncsc1-c1ccc([C@H](C)NC(=O)[C@@H]2C[C@@H](O)CN2C(=O)[C@H](C(C)C)n2cc(-c3cnc(N4CC[C@H](c5cc6nnc(-c7ccccc7O)cc6n5C5CC5)C4)nc3)nn2)cc1 [Compound 74, (2S,4R)-1-((S)-2-(4-(2-((S)-3-(5-cyclopropyl-3-(2-hydroxyphenyl)-5H-pyrrolo[3,2-c]pyridazin-6-yl)pyrrolidin-1-yl)pyrimidin-5-yl)-1H-1,2,3-triazol-1-yl)-3-methylbutanoyl)-4-hydroxy-N—((S)-1-(4-(4-methylthiazol-5-yl)phenyl)ethyl)pyrrolidine-2-carboxamide] | A (“A” indicates maximum degradation ≥75%) | < 10 | > 50 | < 10
Cc1ncsc1-c1ccc([C@H](C)NC(=O)[C@@H]2C[C@@H](O)CN2C(=O)[C@@H](C(C)C)n2cc(-c3cnc(N4CC[C@H](c5cc6nnc(-c7ccccc7O)cc6n5C5CC5)C4)nc3)nn2)cc1 [Compound 75, (2S,4R)-1-((R)-2-(4-(2-((S)-3-(5-cyclopropyl-3-(2-hydroxyphenyl)-5H-pyrrolo[3,2-c]pyridazin-6-yl)pyrrolidin-1-yl)pyrimidin-5-yl)-1H-1,2,3-triazol-1-yl)-3-methylbutanoyl)-4-hydroxy-N—((S)-1-(4-(4-methylthiazol-5-yl)phenyl)ethyl)pyrrolidine-2-carboxamide] | A (“A” indicates maximum degradation ≥75%) | > 10 | < 50 | –
Cc1ncsc1-c1ccc([C@H](C)NC(=O)[C@@H]2C[C@@H](O)CN2C(=O)[C@@H](c2cc(N3CCC(c4cc5nnc(-c6ccccc6O)cc5n4C4CC4)CC3)no2)C(C)C)cc1 [Compound 76, (2S,4R)-1-((R)-2-(3-(4-(5-cyclopropyl-3-(2-hydroxyphenyl)-5H-pyrrolo[3,2-c]pyridazin-6-yl)piperidin-1-yl)isoxazol-5-yl)-3-methylbutanoyl)-4-hydroxy-N-((S)-1-(4-(4-methylthiazol-5-yl)phenyl)ethyl)pyrrolidine-2-carboxamide] | A (“A” indicates maximum degradation ≥75%) | < 10 | < 50 | –
Cc1ncsc1-c1ccc([C@H](C)NC(=O)[C@@H]2C[C@@H](O)CN2C(=O)[C@@H](c2cc(N3CC4(CC(c5cc6nnc(-c7ccccc7O)cc6n5CC5CC5)C4)C3)no2)C(C)C)cc1 [Compound 77, (2S,4R)-1-((R)-2-(3-(6-(5-(cyclopropylmethyl)-3-(2-hydroxyphenyl)-5H-pyrrolo[3,2-c]pyridazin-6-yl)-2-azaspiro[3.3]heptan-2-yl)isoxazol-5-yl)-3-methylbutanoyl)-4-hydroxy-N-((S)-1-(4-(4-methylthiazol-5-yl)phenyl)ethyl)pyrrolidine-2-carboxamide] | A (“A” indicates maximum degradation ≥75%) | < 10 | < 50 | –
Cc1ncsc1-c1ccc([C@H](C)NC(=O)[C@@H]2C[C@@H](O)CN2C(=O)[C@@H](c2cc(N3CC4(CC(c5cc6nnc(-c7ccccc7O)cc6n5C5CC5)C4)C3)no2)C(C)C)cc1 [Compound 78, (2S,4R)-1-((R)-2-(3-(6-(5-cyclopropyl-3-(2-hydroxyphenyl)-5H-pyrrolo[3,2-c]pyridazin-6-yl)-2-azaspiro[3.3]heptan-2-yl)isoxazol-5-yl)-3-methylbutanoyl)-4-hydroxy-N-((S)-1-(4-(4-methylthiazol-5-yl)phenyl)ethyl)pyrrolidine-2-carboxamide] | A (“A” indicates maximum degradation ≥75%) | < 10 | < 50 | –
Cc1ncsc1-c1ccc([C@H](C)NC(=O)[C@@H]2C[C@@H](O)CN2C(=O)[C@@H](c2cc(N3CC[C@H](c4cc5nnc(-c6ccccc6O)cc5n4C4CCC4)C3)no2)C(C)C)cc1 [Compound 79, (2S,4R)-1-((R)-2-(3-((S)-3-(5-cyclobutyl-3-(2-hydroxyphenyl)-5H-pyrrolo[3,2-c]pyridazin-6-yl)pyrrolidin-1-yl)isoxazol-5-yl)-3-methylbutanoyl)-4-hydroxy-N-((S)-1-(4-(4-methylthiazol-5-yl)phenyl)ethyl)pyrrolidine-2-carboxamide] | A (“A” indicates maximum degradation ≥75%) | > 10 | < 50 | –
Cc1ncsc1-c1ccc([C@H](C)NC(=O)[C@@H]2C[C@@H](O)CN2C(=O)[C@@H](c2cc(N3CC[C@H](c4cc5nnc(-c6ccccc6O)cc5n4C4(C)CC4)C3)no2)C(C)C)cc1 [Compound 80, (2S,4R)-4-hydroxy-1-((R)-2-(3-((S)-3-(3-(2-hydroxyphenyl)-5-(1-methylcyclopropyl)-5H-pyrrolo[3,2-c]pyridazin-6-yl)pyrrolidin-1-yl)isoxazol-5-yl)-3-methylbutanoyl)-N-((S)-1-(4-(4-methylthiazol-5-yl)phenyl)ethyl)pyrrolidine-2-carboxamide] | A (“A” indicates maximum degradation ≥75%) | > 10 | > 75 | > 10
Cc1ncsc1-c1ccc([C@H](C)NC(=O)[C@@H]2C[C@@H](O)CN2C(=O)[C@@H](c2cc(N3CC[C@@H](c4cc5nnc(-c6ccccc6O)cc5n4C4(C)CC4)C3)no2)C(C)C)cc1 [Compound 81, (2S,4R)-4-hydroxy-1-((R)-2-(3-((R)-3-(3-(2-hydroxyphenyl)-5-(1-methylcyclopropyl)-5H-pyrrolo[3,2-c]pyridazin-6-yl)pyrrolidin-1-yl)isoxazol-5-yl)-3-methylbutanoyl)-N-((S)-1-(4-(4-methylthiazol-5-yl)phenyl)ethyl)pyrrolidine-2-carboxamide] | A (“A” indicates maximum degradation ≥75%) | < 10 | > 75 | < 10
Cc1ncsc1-c1ccc([C@H](C)NC(=O)[C@@H]2C[C@@H](O)CN2C(=O)[C@@H](c2cc(-c3ccnc(N4CC[C@@H](c5cc6nnc(-c7ccccc7O)cc6n5C5CC5)C4)c3)no2)C(C)C)cc1 [Compound 82, (2S,4R)-1-[(2R)-2-(3-{2-[(3R)-3-[5-cyclopropyl-3-(2-hydroxyphenyl)pyrrolo [3,2-c]pyridazin-6-yl]pyrrolidin-1-yl]pyridin-4-yl}-1,2-oxazol-5-yl)-3-methylbutanoyl]-4-hydroxy-N-[(1S)-1-[4-(4-methyl-1,3-thiazol-5-yl)phenyl]ethyl]pyrrolidine-2-carboxamide] | A (“A” indicates maximum degradation ≥75%) | < 10 | > 50 | > 10
Cc1ncsc1-c1ccc(CNC(=O)[C@@H]2C[C@@H](O)CN2C(=O)[C@@H](c2cc(N3CCC4(CC3)CC(c3cc5nnc(-c6ccccc6O)cc5n3C3CC3)C4)no2)C(C)C)cc1 [Compound 84, (2S,4R)-1-((R)-2-(3-(2-(5-cyclopropyl-3-(2-hydroxyphenyl)-5H-pyrrolo[3,2-c]pyridazin-6-yl)-7-azaspiro[3.5]nonan-7-yl)isoxazol-5-yl)-3-methylbutanoyl)-4-hydroxy-N-(4-(4-methylthiazol-5-yl)benzyl)pyrrolidine-2-carboxamide] | A (“A” indicates maximum degradation ≥75%) | < 10 | < 50 | –
Cc1ncsc1-c1ccc([C@H](C)NC(=O)[C@@H]2C[C@@H](O)CN2C(=O)[C@@H](c2cc(N3CCC4(CCC(c5cc6nnc(-c7ccccc7O)cc6n5C5CC5)CC4)CC3)no2)C(C)C)cc1 [Compound 85, (2S,4R)-1-((R)-2-(3-(9-(5-cyclopropyl-3-(2-hydroxyphenyl)-5H-pyrrolo[3,2-c]pyridazin-6-yl)-3-azaspiro[5.5]undecan-3-yl)isoxazol-5-yl)-3-methylbutanoyl)-4-hydroxy-N-((S)-1-(4-(4-methylthiazol-5-yl)phenyl)ethyl)pyrrolidine-2-carboxamide] | A (“A” indicates maximum degradation ≥75%) | < 10 | > 75 | > 10
Cc1ncsc1-c1ccc([C@H](C)NC(=O)[C@@H]2C[C@@H](O)CN2C(=O)[C@@H](c2cc(N3CCC4(CC3)CC(c3cc5nnc(-c6ccccc6O)cc5n3CC3CC3)C4)no2)C(C)C)cc1 [Compound 86, (2S,4R)-1-((R)-2-(3-(2-(5-(cyclopropylmethyl)-3-(2-hydroxyphenyl)-5H-pyrrolo[3,2-c]pyridazin-6-yl)-7-azaspiro[3.5]nonan-7-yl)isoxazol-5-yl)-3-methylbutanoyl)-4-hydroxy-N-((S)-1-(4-(4-methylthiazol-5-yl)phenyl)ethyl)pyrrolidine-2-carboxamide] | A (“A” indicates maximum degradation ≥75%) | < 10 | < 50 | –
Cc1ncsc1-c1ccc([C@H](C)NC(=O)[C@@H]2C[C@@H](O)CN2C(=O)[C@@H](c2cc(N3CC4(CCC(c5cc6nnc(-c7ccccc7O)cc6n5C5CC5)CC4)C3)no2)C(C)C)cc1 [Compound 87, (2S,4R)-1-((R)-2-(3-(7-(5-cyclopropyl-3-(2-hydroxyphenyl)-5H-pyrrolo[3,2-c]pyridazin-6-yl)-2-azaspiro[3.5]nonan-2-yl)isoxazol-5-yl)-3-methylbutanoyl)-4-hydroxy-N-((S)-1-(4-(4-methylthiazol-5-yl)phenyl)ethyl)pyrrolidine-2-carboxamide] | A (“A” indicates maximum degradation ≥75%) | < 10 | > 75 | < 10
